Consider 15 compounds from patent US11999727B2 (Tango Therapeutics, Inc., priority 2020, dated 2024).

In experiment [1] the target is T1, PRMT5 (Homo sapiens, UniProt O14744).
T1 construct: purchased Viva (custom protein)
As to the kind of experiment: PRMT5 biochemical IC50 assay with MTA as cofactor. Particulars: PRMT5, MTA as cofactor; read-out: MTA IC50.

The test system of experiment [2] is HAP1 MTAP-deleted cell line. The experiment can be described thus: SDMA in-cell western assay, HAP1 MTAP-deleted. It is filed as cell-based. Particulars: for IC50: Homo sapiens, HAP1, SDMA in-cell western, HAP1 MTAP-deleted, read-out: HAP1 MTAP deleted IC50; for MTAP intact/deleted ratio: IC50 ratio HAP1 MTAP-intact / HAP1 MTAP-deleted, SDMA in-cell western. An outline of the steps:
(§1)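 MTAP-null vs endogenous-MTAP HAP1 isogenic cells; in-cell western SDMA readout; IC50 per line.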

In experiment [3] the test system is HAP1 MTAP-deleted cell line. The experiment can be described thus: Viability assay, MTAP-deleted cell line. It counts as cell-based. Particulars: Homo sapiens, HAP1, viability assay, MTAP-deleted cell line; read-out: HAP1 MTAP deleted viability. The source says:
Table 1 additionally indicates IC50 values in a viability assay for the MTAP-deleted cell line (column 10), indicating the effect of treatment with compound on cell survival.

Experiment [4] relates to HAP1 MTAP-intact cell line. The experiment can be described thus: SDMA in-cell western assay, HAP1 MTAP-intact. It is filed as cell-based. Particulars: Homo sapiens, HAP1, SDMA in-cell western, HAP1 MTAP-intact; read-out: MTAP HAP1 intact IC50. An outline of the steps:
as §1

In experiment [5] the target is T1, PRMT5. As to the kind of experiment: PRMT5 biochemical IC50 assay with no cofactor. The following applies: PRMT5, no cofactor; read-out: No Cofactor/rel IC50. The source says:
Table 1 indicates IC50 values (μM) against PRMT5 for exemplary compounds in the presence of SAM as cofactor, with no cofactor, and with MTA as cofactor, respectively (columns 4-6). […] Ki values can be calculated from the IC50 values as described in the Examples section. As detailed in the Examples section, for the assay performed in the presence of SAM, IC50=Ki×1.5 (Ki=IC50/1.5).

Experiment [6] has as its target T1, PRMT5. As to the kind of experiment: PRMT5 biochemical IC50 assay with SAM as cofactor. The following applies: PRMT5, SAM as cofactor; read-out: SAM IC50.

T1 sequence (O14744 whole entry): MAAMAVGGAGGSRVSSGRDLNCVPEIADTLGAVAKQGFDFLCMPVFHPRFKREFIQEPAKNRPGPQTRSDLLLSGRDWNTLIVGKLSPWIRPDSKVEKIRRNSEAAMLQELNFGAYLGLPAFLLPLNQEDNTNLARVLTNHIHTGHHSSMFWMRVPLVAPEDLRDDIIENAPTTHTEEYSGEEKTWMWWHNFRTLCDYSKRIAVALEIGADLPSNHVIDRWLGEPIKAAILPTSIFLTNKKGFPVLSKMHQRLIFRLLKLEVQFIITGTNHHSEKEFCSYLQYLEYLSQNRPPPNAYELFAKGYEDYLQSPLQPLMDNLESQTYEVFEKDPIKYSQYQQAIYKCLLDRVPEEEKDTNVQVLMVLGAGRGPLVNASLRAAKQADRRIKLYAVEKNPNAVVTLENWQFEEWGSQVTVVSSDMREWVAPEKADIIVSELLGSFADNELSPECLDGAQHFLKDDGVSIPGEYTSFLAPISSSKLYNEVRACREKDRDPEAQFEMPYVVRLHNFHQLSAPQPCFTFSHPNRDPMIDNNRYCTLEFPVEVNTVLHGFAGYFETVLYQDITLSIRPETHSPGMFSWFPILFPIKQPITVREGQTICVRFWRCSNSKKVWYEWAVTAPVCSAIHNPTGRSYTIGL
T1 sequence (Q9BQA1 whole entry partner): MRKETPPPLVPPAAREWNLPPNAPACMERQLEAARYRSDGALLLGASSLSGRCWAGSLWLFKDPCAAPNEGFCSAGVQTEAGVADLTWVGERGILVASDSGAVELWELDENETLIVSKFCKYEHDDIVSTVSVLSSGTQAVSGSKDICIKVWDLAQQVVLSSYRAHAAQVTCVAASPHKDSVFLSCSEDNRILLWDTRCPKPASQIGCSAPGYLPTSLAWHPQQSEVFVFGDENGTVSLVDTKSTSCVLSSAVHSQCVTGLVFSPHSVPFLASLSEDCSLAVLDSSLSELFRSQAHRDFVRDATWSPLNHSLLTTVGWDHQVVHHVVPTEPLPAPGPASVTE

As for `NC(=O)c1cncc(NC(=O)C(=O)N2C[C@@H]3CC[C@@H](C3)[C@@H]2c2ccccc2)c1` (single isomer, unassigned) [Compound 205], the IC50 on PRMT5 [1] was 50 to 500 nM; in experiment [2], more than 1000 nM; in experiment [3], more than 10000 nM; in experiment [4], more than 1000 nM; on PRMT5 [5] it was more than 500 nM; at PRMT5 [6], 50 to 500 nM. For the same compound, the MTAP intact/deleted ratio entry in experiment [2] was “B (an IC50 ratio greater than or equal to 3 fold but lower than 10 fold)”.
As for `C[C@H]1CC[C@H](C2CCC2)N(C(=O)C(=O)Nc2cncc(C(N)=O)c2)C1` (single isomer, unassigned) [Compound 211], the IC50 is less than 50 nM on PRMT5 [1]; less than 100 nM in experiment [2]; 1000 to 10000 nM in experiment [3]; more than 1000 nM in experiment [4]; 50 to 500 nM at PRMT5 [5]; 50 to 500 nM on PRMT5 [6]. Moreover, the MTAP intact/deleted ratio result in experiment [2] is recorded as “A (an IC50 ratio greater than or equal to 10 fold)”.
Regarding `C[C@@H]1CC[C@@H](C2CCC2)N(C(=O)C(=O)Nc2cncc(C(N)=O)c2)C1` (single isomer, unassigned) [Compound 216], the IC50 at PRMT5 [1] is more than 500 nM; in experiment [2] it was more than 1000 nM; in experiment [3] it was more than 10000 nM; in experiment [4], more than 1000 nM; at PRMT5 [5], more than 500 nM; at PRMT5 [6], more than 500 nM. The MTAP intact/deleted ratio entry in experiment [2] is recorded as “C (an IC50 ratio of less than 3 fold)”.
In the case of `Cc1cccc([C@H]2CC[C@H](C)CN2C(=O)C(=O)Nc2cncc(C(N)=O)c2)c1` (single isomer, unassigned) [Compound 219], the IC50 at PRMT5 [1] was less than 50 nM; in experiment [2] it was less than 100 nM; in experiment [3], 1000 to 10000 nM; in experiment [4], more than 1000 nM; at PRMT5 [5], less than 50 nM; at PRMT5 [6], 50 to 500 nM. Moreover, the MTAP intact/deleted ratio entry in experiment [2] is listed as “A (an IC50 ratio greater than or equal to 10 fold)”.
With `Cc1cccc([C@@H]2CC[C@@H](C)CN2C(=O)C(=O)Nc2cncc(C(N)=O)c2)c1` (single isomer, unassigned) [Compound 227], the IC50 at PRMT5 [1] is more than 500 nM; in experiment [2], more than 1000 nM; in experiment [3] it was more than 10000 nM; in experiment [4], more than 1000 nM; on PRMT5 [5], more than 500 nM; at PRMT5 [6], more than 500 nM. Besides, the MTAP intact/deleted ratio result in experiment [2] is recorded as “C (an IC50 ratio of less than 3 fold)”.
As to `C[C@@H]1CC[C@@H]2CCCC[C@@H]2N1C(=O)C(=O)Nc1cncc(C(N)=O)c1` (single isomer, unassigned) [Compound 236], the IC50 was 50 to 500 nM at PRMT5 [1]; more than 1000 nM in experiment [2]; more than 10000 nM in experiment [3]; more than 1000 nM in experiment [4]; more than 500 nM on PRMT5 [5]; more than 500 nM at PRMT5 [6]. The MTAP intact/deleted ratio entry in experiment [2] is reported as “B (an IC50 ratio greater than or equal to 3 fold but lower than 10 fold)”.
As for `C[C@H]1CC[C@H]2CCCC[C@H]2N1C(=O)C(=O)Nc1cncc(C(N)=O)c1` (single isomer, unassigned) [Compound 245], the IC50 at PRMT5 [1] is less than 50 nM; in experiment [2], 100 to 1000 nM; in experiment [3] it was 1000 to 10000 nM; in experiment [4], more than 1000 nM; on PRMT5 [5], 50 to 500 nM; on PRMT5 [6] it was 50 to 500 nM. Moreover, the MTAP intact/deleted ratio result in experiment [2] is given as “A (an IC50 ratio greater than or equal to 10 fold)”.
For the compound `Cc1cc(NC(=O)C(=O)N2C[C@H](C)CC[C@H]2c2ccccc2)cnc1C` (single isomer, unassigned) [Compound 254], the IC50 was less than 50 nM on PRMT5 [1]; 100 to 1000 nM in experiment [2]; 1000 to 10000 nM in experiment [3]; more than 1000 nM in experiment [4]; 50 to 500 nM on PRMT5 [5]; less than 50 nM on PRMT5 [6]. Also, the MTAP intact/deleted ratio entry in experiment [2] was “A (an IC50 ratio greater than or equal to 10 fold)”.
With `Cc1cc(NC(=O)C(=O)N2C[C@@H](C)CC[C@@H]2c2ccccc2)cnc1C` (single isomer, unassigned) [Compound 258], the IC50 was more than 500 nM at PRMT5 [1]; more than 1000 nM in experiment [2]; more than 10000 nM in experiment [3]; more than 1000 nM in experiment [4]; more than 500 nM at PRMT5 [5]; more than 500 nM on PRMT5 [6]. The MTAP intact/deleted ratio result in experiment [2] is “C (an IC50 ratio of less than 3 fold)”.
Consider `Cc1cc(NC(=O)C(=O)N2C[C@H](C)CC[C@H]2[C@H]2CC[C@H](C(C)(C)C)CC2)cnc1N` (single isomer, unassigned) [Compound 260], for which the IC50 at PRMT5 [1] was less than 50 nM; in experiment [2], 100 to 1000 nM; in experiment [3], 1000 to 10000 nM; in experiment [4], more than 1000 nM; on PRMT5 [5], 50 to 500 nM; at PRMT5 [6] it was 50 to 500 nM. Further, the MTAP intact/deleted ratio result in experiment [2] is recorded as “C (an IC50 ratio of less than 3 fold)”.
`C[C@H]1C[C@H](C)[C@H](c2ccccc2)N(C(=O)C(=O)Nc2cncc(C(N)=O)c2)C1` (single isomer, unassigned) [Compound 267, 5-(2-(3,5-dimethyl-2-phenylpiperidin-1-yl)-2-oxoacetamido)nicotinamide]: the IC50 is less than 50 nM on PRMT5 [1]; less than 100 nM in experiment [2]; 1000 to 10000 nM in experiment [3]; more than 1000 nM in experiment [4]; 50 to 500 nM on PRMT5 [5]; less than 50 nM on PRMT5 [6]. Further, the MTAP intact/deleted ratio entry in experiment [2] is “A (an IC50 ratio greater than or equal to 10 fold)”.
For the compound `C[C@H]1CCC[C@@H](c2ccccc2)N1C(=O)C(=O)Nc1cncc(C(N)=O)c1` (single isomer, unassigned) [Compound 274], the IC50 was less than 50 nM at PRMT5 [1]; 100 to 1000 nM in experiment [2]; 1000 to 10000 nM in experiment [3]; more than 1000 nM in experiment [4]; 50 to 500 nM on PRMT5 [5]; 50 to 500 nM on PRMT5 [6]. In addition, the MTAP intact/deleted ratio result in experiment [2] is on record as “A (an IC50 ratio greater than or equal to 10 fold)”.
In the case of `CC(=O)N[C@H]1CC[C@@H]([C@@H]2CC[C@@H](C)CN2C(=O)C(=O)Nc2cnc(N)c(C)c2)CC1` (single isomer, unassigned) [Compound 281], the IC50 on PRMT5 [1] was 50 to 500 nM; in experiment [2], 100 to 1000 nM; in experiment [3] it was more than 10000 nM; in experiment [4], more than 1000 nM; on PRMT5 [5], more than 500 nM; at PRMT5 [6] it was more than 500 nM. Moreover, the MTAP intact/deleted ratio entry in experiment [2] is recorded as “A (an IC50 ratio greater than or equal to 10 fold)”.
With `Cc1cc(NC(=O)C(=O)N2C[C@H](C)CC[C@H]2c2cccc(Cl)c2)cnc1N` (single isomer, unassigned) [Compound 283], the IC50 at PRMT5 [1] was more than 500 nM; in experiment [2], more than 1000 nM; in experiment [3], more than 10000 nM; in experiment [4], more than 1000 nM; at PRMT5 [5], more than 500 nM; on PRMT5 [6], more than 500 nM. Further, in experiment [2], the MTAP intact/deleted ratio result is recorded as “B (an IC50 ratio greater than or equal to 3 fold but lower than 10 fold)”.
Regarding `Cc1cc(NC(=O)C(=O)N2C[C@@H](C)CC[C@@H]2c2cccc(Cl)c2)cnc1N` (single isomer, unassigned) [Compound 284], the IC50 on PRMT5 [1] was less than 50 nM; in experiment [2] it was less than 100 nM; in experiment [3], less than 1000 nM; in experiment [4], 100 to 1000 nM; on PRMT5 [5], less than 50 nM; at PRMT5 [6], 50 to 500 nM. In addition, the MTAP intact/deleted ratio entry in experiment [2] was “A (an IC50 ratio greater than or equal to 10 fold)”.
